Reference: patent EP4803511A1, “SMALL MOLECULE COMPOUND HAVING SULFONIC ACID OR SULFINIC ACID LACTONE STRUCTURE, COMPOSITION AND USE THEREOF” (Hangzhou Phecdamed Co., Ltd., priority 2023, dated 2025)

Key:
[1] = system: wild-type AB strain zebrafish; assay: Zebrafish model, relieving stinging efficacy (SDS-induced, movement distance and speed); assay type: in vivo; conditions: zebrafish 3 dpf, 100 µM SDS model; effective concentrations 22.2, 66.6, and 200 µg/mL
Procedure: (§1) Experimental animal: Healthy wild-type AB strain zebrafish at 3 dpf (days post fertilization)
Evaluation of the relieving stinging efficacy: Healthy AB strain zebrafish were taken and randomly divided into four groups: blank control, modeling group, positive control, and sample group. The zebrafish in the blank control group were treated with embryo culture water; the zebrafish in the modeling group were treated with a modeling drug (100 µM SDS , sodium dodecyl sulfate); the zebrafish in the positive control group were treated with both the modeling agent and a positive control drug (200 µM asiaticoside solution); and the zebrafish in the sample group were treated with both the modeling drug and different concentrations of the test sample (high, medium, and low concentrations). After continuous treatment for a certain period, the zebrafish's behavioral trajectories were recorded using a behavior analyzer, and the changes in total movement distance and speed were statistically analyzed, the results are shown in FIGS. 2-4. […] In the behavioral trajectory diagram in FIG. 2, the black lines represent the zebrafish's behavioral trajectories in the hole; the more numerous and chaotic the lines, the more vigorous the movement of the zebrafish.

[2] = system: wild-type AB strain zebrafish; assay: Zebrafish tail amputation model, wound repair efficacy (caudal fin area); assay type: in vivo; conditions: I-8 at 1, 3, and 9 µg/mL, 48 hrs; compared with the modeling group, statistical significance
Procedure: as §1
Evaluation of wound repair efficacy: Healthy AB strain zebrafish were taken as experimental animal, and randomly divided into blank control group, modeling group, positive control group, and sample group. The zebrafish in the blank control group were treated with culture water; the zebrafish in the modeling group were treated with culture water after cutting the caudal fin; the zebrafish in the positive control group and sample group were treated with 600 µg/mL hyaluronic acid and I-8 with different concentrations (1, 3, 9 µg/mL) respectively after cutting the caudal fin. The larva fish in above groups were placed in a constant temperature incubator at 28.5 °C and kept in continuous darkness for 48 hrs, with the culture medium changed once every 24 hrs. Image-Pro Plus software was used to calculate the area of the caudal fin of each group of zebrafish. The data were statistically analyzed using GraphPad software.

Cu/Zn-sod = assay: Zebrafish oxidative aging model (menadione), Cu/Zn-sod gene expression by RT-qPCR; assay type: in vivo; conditions: I-8 at 2.5, 7.5, and 22.2 µg/mL, 22 hrs, 4 µM menadione; compared to the modeling group, statistical significance
Procedure: Experimental animal: Healthy wild-type AB strain zebrafish at 48 hpf (hours post-fertilization)
Healthy AB strain zebrafish were taken as experimental animal. A zebrafish oxidative aging model was constructed using chemical mutagenesis with 4 µM menadione as the modeling drug. Fucoxanthin was used as a positive control compound. After treating the zebrafish oxidative aging model with different concentrations of I-8 for 22 hrs, changes in the reactive oxygen species (ROS) content, β-galactosidase activity, and the expression of three antioxidant and anti-aging related genes (Cu/Zn-sod, Mn-sod, and ampk) were respectively detected and statistically analyzed.
During the experiment, the modeling drug, positive compound, and I-8 were dispersed together in the culture water of zebrafish. […] Cell ROX™ Deep Red fluorescent probes and β-galactosidase staining kits were used to specifically label ROS and β-galactosidase in the fish, respectively, and the staining intensity was quantified using Image-Pro Plus software. After extracting RNA from the whole fish, the expression changes of three genes (Cu/Zn-sod, Mn-sod, and ampk) in the fish were detected at the mRNA level using Quantitative Real-time PCR (RT-qPCR). The data were statistically analyzed using GraphPad software.

EP2 = EP2 gene expression in HaCaT after UVB radiation (q-PCR); assay type: cell-based, human; conditions: UVB 80 mJ/cm^2, 24 hrs, dose-dependent
Description: In the following Test Examples 6-1 and 6-2, using immortalized keratinocytes (HaCaT) and UVB to establish a model, after the compound to be test was applied to HaCaT, the expression levels of TNF-α, IL-8, IL-1β and EP2 were detected; using immortalized keratinocytes (HaCaT) and capsaicin to establish a model, after the compound to be test was applied to HaCaT, the expression level of TRPV1 was detected, so as to evaluate the soothing effect of the test substance from multiple dimensions.
• 1) Cell inoculation: HaCaT cells were inoculated into a 6-well plate at 6×10^5/well, cultured in an incubator (37°C, 5% CO2) for 12 hrs, and a normal control group (0 mJ/cm^2 + vehicle control), a model control group (80 mJ/cm^2 + vehicle control), a low concentration group (80 mJ/cm^2 + low concentration compound), a medium concentration group (80 mJ/cm^2 + medium concentration compound), and a high concentration group (80 mJ/cm^2 + high concentration compounds) were respectively provided. • 2) UVB modeling: The HaCaT cells were washed 3 times with D'Hanks before UVB radiation, 1 mL of D'Hanks was added into the wells, to make the cells to be immersed, and the control group was coated with tinfoil and placed in the dark. […]

LAMA5 = assay: LN-5 gene expression in HaCaT human immortalized keratinocytes; assay type: cell-based; conditions: 24 hrs, dose-dependent
Description: Skin fragility is partly attributed to changes in hemidesmosomes and the expression downregulation of various collagen proteins (Collagen I, III, IV, VII) or laminins (such as LN-5) at the dermal-epidermal junction. LN-5 has been proven to be a component of anchoring fibers in the basement membrane of the skin, cornea, conjunctiva, and other tissues. LN-5 participates in cell-cell interactions through the mediation of integrins and proteoglycans, thereby playing a crucial role in cell adhesion, growth, migration, and differentiation. The appearance of wrinkles is closely related to the normal synthesis and expression of collagen and laminins. Therefore, the increase of the above collagen content and LN-5 can achieve a certain role in resisting wrinkles, and plays an important role in the aging process of the skin. Therefore, the anti-wrinkle effect of the compound to be tested was evaluated by detecting the level of Collage I protein of […] by ELISA, and detecting the transcription levels of epidermal cells (keratinocytes) III, IV, VII and LN -5 by Real-Time PCR. The following Test Examples 8-1 and 8-2 evaluated the anti-wrinkle efficacy of compounds using HaCaT human immortalized keratinocytes and HSF human skin fibroblasts. […]

O=S1(=O)Oc2cc(O)ccc2-c2ccc(O)cc21 [Compound I-8] was tested, and the relieving stinging efficacy [1] was “certain relieving stinging efficacy”, the caudal fin area [2] was “increased” and the “expression of Cu/Zn-sod gene” value (Cu/Zn-sod) was “upregulated”. For the same compound, the “expression level of EP2” value (EP2) was “downregulating” and the LAMA5 gene expression (LAMA5) was “upregulate”.
